The assay concerns Phakopsora pachyrhizi. Briefly: Phakopsora pachyrhizi test in soybean, preventive spray. It counts as in vivo. To be noted: preventive spray on soybean plants, inoculated one day after treatment, greenhouse 25° C., 90% relative humidity, read-out: control (efficacy, disease severity rating) compared to the untreated check. As for the experimental part:
Example 8: Phakopsora pachyrhizi Test in Soybean
Compounds were dissolved in 2% DMSO/Acetone & then mixed with water to the calibrated spray volume of 50 mL and poured into the spray bottles for further applications.
To test the preventive activity of compounds, healthy young soybean plants raised in the greenhouse were sprayed with active compound preparation at the stated application rates inside the spray cabinets using hallowcone nozzles. One day after treatment, the plants were inoculated with spore suspension containing 2.1×10^6 Phakopsora pachyrhizi inoculum. The inoculated plants were then kept in greenhouse chamber at 25° C. temperature & 90% relative humidity for disease expression.
A visual assessment of compound's performance was carried out by rating the disease severity (0-100% scale) on treated plants on 3, 7, 10 & 15 days after application. Efficacy (% control) of the compounds was calculated by comparing the disease rating in the treatment with the one of the untreated control. The sprayed plants were also assessed for compound's plant compatibility by recording symptoms like necrosis, chlorosis & stunting.
For the molecule `CS(=O)(=NC(=O)c1ccc(-c2noc(C(F)(F)F)n2)cc1)c1ccc(F)cc1` (stereo not drawn) [Compound 6, N-((4-fluorophenyl)(methyl)(oxo)-λ^6-sulfanylidene)-4-(5-(trifluoromethyl)-1,2,4-oxadiazol-3-yl)benzamide], the pest or weed control at 500 ppm was greater than 90%.

For `CS(=O)(=NC(=O)c1ccc(-c2noc(C(F)(F)F)n2)cc1)c1ccc(C#N)cc1` (stereo not drawn) [Compound 42, N-((4-cyanophenyl)(methyl)(oxo)-λ^6-sulfaneylidene)-4-(5-(trifluoromethyl)-1,2,4-oxadiazol-3-yl)benzamide], the pest or weed control at 500 ppm is greater than 90%.

Consider `CS(=O)(Cc1c(Cl)cccc1Cl)=Nc1ccc(-c2noc(C(F)(F)F)n2)cc1` (stereo not drawn) [Compound 91, (2,6-dichlorobenzyl)(methyl)((4-(5-(trifluoromethyl)-1,2,4-oxadiazol-3-yl)phenyl)imino)-λ^6-sulfanone], for which the pest or weed control at 500 ppm is greater than 90%.

Take `CS(=O)(=NC(=O)c1ccc(-c2noc(C(F)(F)F)n2)cc1)c1c(F)cccc1F` (stereo not drawn) [Compound 36, N-((2,6-difluorophenyl)(methyl)(oxo)-λ^6-sulfaneylidene)-4-(5-(trifluoromethyl)-1,2,4-oxadiazol-3-yl)benzamide]: the pest or weed control at 500 ppm was greater than 90%.

With `CS(=O)(=NC(=O)c1ccc(-c2noc(C(F)(F)F)n2)cc1)c1ccc(Cl)cc1` (stereo not drawn) [Compound 1, N-((4-chlorophenyl)(methyl)(oxo)-λ^6-sulfanylidene)-4-(5-(trifluoromethyl)-1,2,4-oxadiazol-3-yl)benzamide], the pest or weed control at 500 ppm is greater than 90%.

Regarding `CS(=O)(=Nc1ccc(-c2noc(C(F)(F)F)n2)cc1)c1ccc(OC(F)(F)F)cc1` (stereo not drawn) [Compound 21, methyl(4-(trifluoromethoxy)phenyl)((4-(5-(trifluoromethyl)-1,2,4-oxadiazol-3-yl)phenyl)imino)-λ^6-sulfanone], the pest or weed control at 500 ppm is greater than 90%.

`Cc1nnc(S(C)(=O)=NC(=O)c2ccc(-c3noc(C(F)(F)F)n3)cc2)s1` (stereo not drawn) [Compound 54, N-(methyl(5-methyl-1,3,4-thiadiazol-2-yl)(oxo)-λ^6-sulfaneylidene)-4-(5-(trifluoromethyl)-1,2,4-oxadiazol-3-yl)benzamide]: the pest or weed control at 500 ppm was greater than 90%.

With `CS(=O)(=NC(=O)c1ccc(-c2noc(C(F)(F)F)n2)cc1)c1ccccn1` (stereo not drawn) [Compound 2, N-(methyl(oxo)(pyridin-2-yl)-λ^6-sulfanylidene)-4-(5-(trifluoromethyl)-1,2,4-oxadiazol-3-yl)benzamide], the pest or weed control at 500 ppm is greater than 90%.

`CS(=O)(=NC(=O)c1ccc(-c2noc(C(F)(F)F)n2)cc1)c1ccc(C(F)(F)F)cc1` (stereo not drawn) [Compound 7, N-(methyl(oxo)(4-(trifluoromethyl)phenyl)-λ^6-sulfanylidene)-4-(5-(trifluoromethyl)-1,2,4-oxadiazol-3-yl)benzamide]: the pest or weed control at 500 ppm is greater than 90%.

As to `CS(=O)(=NC(=O)c1ccc(-c2noc(C(F)(F)F)n2)cc1)c1ccccc1` (stereo not drawn) [Compound 9, N-(methyl(oxo)(phenyl)-λ^6-sulfanylidene)-4-(5-(trifluoromethyl)-1,2,4-oxadiazol-3-yl)benzamide], the pest or weed control at 500 ppm was greater than 90%.

For `CS(=O)(Cc1c(Cl)cccc1Cl)=NC(=O)c1ccc(-c2noc(C(F)(F)F)n2)cc1` (stereo not drawn) [Compound 51, N-((2,6-dichlorobenzyl)(methyl)(oxo)-λ^6-sulfaneylidene)-4-(5-(trifluoromethyl)-1,2,4-oxadiazol-3-yl)benzamide], the pest or weed control at 500 ppm is greater than 90%.

`CS(=O)(=Nc1ccc(-c2noc(C(F)(F)F)n2)nc1)c1ccccn1` (stereo not drawn) [Compound 110, methyl(pyridin-2-yl)((6-(5-(trifluoromethyl)-1,2,4-oxadiazol-3-yl)pyridin-3-yl)imino)-λ^6-sulfanone]: the pest or weed control at 500 ppm was greater than 90%.

As to `COc1ccc(S(C)(=O)=NC(=O)c2ccc(-c3noc(C(F)(F)F)n3)cc2)cc1` (stereo not drawn) [Compound 10, N-((4-methoxyphenyl)(methyl)(oxo)-λ^6-sulfanylidene)-4-(5-(trifluoromethyl)-1,2,4-oxadiazol-3-yl)benzamide], the pest or weed control at 500 ppm is greater than 90%.

For `CS(=O)(=NC(=O)c1ccc(-c2noc(C(F)(F)F)n2)cc1)c1ccc(F)c(F)c1` (stereo not drawn) [Compound 57, N-((3,4-difluorophenyl)(methyl)(oxo)-λ^6-sulfaneylidene)-4-(5-(trifluoromethyl)-1,2,4-oxadiazol-3-yl)benzamide], the pest or weed control at 500 ppm was greater than 90%.

On to `Cc1ccc(S(C)(=O)=NC(=O)c2ccc(-c3noc(C(F)(F)F)n3)cc2)cc1` (stereo not drawn) [Compound 30, N-(methyl(oxo)(p-tolyl)-λ^6-sulfaneylidene)-4-(5-(trifluoromethyl)-1,2,4-oxadiazol-3-yl)benzamide], for which the pest or weed control at 500 ppm was greater than 90%.

Turning to `CS(=O)(=NCc1ccc(-c2noc(C(F)(F)F)n2)cc1)c1ccc(C(F)(F)F)cc1` (stereo not drawn) [Compound 25, methyl((4-(5-(trifluoromethyl)-1,2,4-oxadiazol-3-yl)benzyl)imino)(4-(trifluoromethyl)phenyl)-λ^6-sulfanone], the pest or weed control at 500 ppm is greater than 90%.

Take `Cc1csc(S(C)(=O)=NC(=O)c2ccc(-c3noc(C(F)(F)F)n3)cc2)n1` (stereo not drawn) [Compound 53, N-(methyl(4-methylthiazol-2-yl)(oxo)-λ^6-sulfaneylidene)-4-(5-(trifluoromethyl)-1,2,4-oxadiazol-3-yl)benzamide]: the pest or weed control at 500 ppm was greater than 90%.

Take `CS(=O)(=Nc1ccc(-c2noc(C(F)(F)F)n2)cc1)c1ccccc1F` (stereo not drawn) [Compound 12, (2-fluorophenyl)(methyl)((4-(5-(trifluoromethyl)-1,2,4-oxadiazol-3-yl)phenyl)imino)-λ^6-sulfanone]: the pest or weed control at 500 ppm is greater than 90%.

Take `Cc1ccccc1CS(C)(=O)=NC(=O)c1ccc(-c2noc(C(F)(F)F)n2)cc1` (stereo not drawn) [Compound 40, N-(methyl(2-methylbenzyl)(oxo)-λ^6-sulfaneylidene)-4-(5-(trifluoromethyl)-1,2,4-oxadiazol-3-yl)benzamide]: the pest or weed control at 500 ppm was greater than 90%.

For `O=C(N=S1(=O)CCOCC1)c1ccc(-c2noc(C(F)(F)F)n2)cc1` [Compound 58, N-(4-oxido-1,4λ^6-oxathian-4-ylidene)-4-(5-(trifluoromethyl)-1,2,4-oxadiazol-3-yl)benzamide], the pest or weed control at 500 ppm was greater than 90%.

As for `CS(=O)(=NCc1ccc(-c2noc(C(F)(F)F)n2)cc1)c1ccccc1` (stereo not drawn) [Compound 26, methyl(phenyl)((4-(5-(trifluoromethyl)-1,2,4-oxadiazol-3-yl)benzyl)imino)-λ^6-sulfanone], the pest or weed control at 500 ppm is greater than 90%.

With `CS(=O)(=NCc1ccc(-c2noc(C(F)(F)F)n2)cc1)c1ccc(Cl)cc1` (stereo not drawn) [Compound 28, (4-chlorophenyl)(methyl)((4-(5-(trifluoromethyl)-1,2,4-oxadiazol-3-yl)benzyl)imino)-λ^6-sulfanone], the pest or weed control at 500 ppm was greater than 90%.

On to `CS(=O)(=NC(=O)c1ccc(-c2noc(C(F)(F)F)n2)cc1)c1cccc(F)c1` (stereo not drawn) [Compound 5, N-((3-fluorophenyl)(methyl)(oxo)-λ^6-sulfanylidene)-4-(5-(trifluoromethyl)-1,2,4-oxadiazol-3-yl)benzamide], for which the pest or weed control at 500 ppm was greater than 90%.

`CS(=O)(Cc1c(F)cccc1F)=Nc1ccc(-c2noc(C(F)(F)F)n2)cc1` (stereo not drawn) [Compound 85, (2,6-difluorobenzyl)(methyl)((4-(5-(trifluoromethyl)-1,2,4-oxadiazol-3-yl)phenyl)imino)-λ^6-sulfanone]: the pest or weed control at 500 ppm is greater than 90%.

In the case of `CS(=O)(Cc1ccc(C(F)(F)F)cc1)=NC(=O)c1ccc(-c2noc(C(F)(F)F)n2)cc1` (stereo not drawn) [Compound 50, N-(methyl(oxo)(4-(trifluoromethyl)benzyl)-λ^6-sulfaneylidene)-4-(5-(trifluoromethyl)-1,2,4-oxadiazol-3-yl)benzamide], the pest or weed control at 500 ppm is greater than 90%.

On to `CS(=O)(Cc1ccccc1F)=NC(=O)c1ccc(-c2noc(C(F)(F)F)n2)cc1` (stereo not drawn) [Compound 38, N-((2-fluorobenzyl)(methyl)(oxo)-λ^6-sulfaneylidene)-4-(5-(trifluoromethyl)-1,2,4-oxadiazol-3-yl)benzamide], for which the pest or weed control at 500 ppm was greater than 90%.

For the molecule `CS(=O)(Cc1ccc(C#N)cc1)=NC(=O)c1ccc(-c2noc(C(F)(F)F)n2)cc1` (stereo not drawn) [Compound 31, N-((4-cyanobenzyl)(methyl)(oxo)-λ^6-sulfaneylidene)-4-(5-(trifluoromethyl)-1,2,4-oxadiazol-3-yl)benzamide], the pest or weed control at 500 ppm is greater than 90%.

Regarding `CS(=O)(Cc1ccc(F)cc1)=Nc1ccc(-c2noc(C(F)(F)F)n2)cc1` (stereo not drawn) [Compound 89, (4-fluorobenzyl)(methyl)((4-(5-(trifluoromethyl)-1,2,4-oxadiazol-3-yl)phenyl)imino)-λ^6-sulfanone], the pest or weed control at 500 ppm was greater than 90%.

Regarding `CS(=O)(Cc1ccc(Br)cc1)=Nc1ccc(-c2noc(C(F)(F)F)n2)cc1` (stereo not drawn) [Compound 92, (4-bromobenzyl)(methyl)((4-(5-(trifluoromethyl)-1,2,4-oxadiazol-3-yl)phenyl)imino)-λ^6-sulfanone], the pest or weed control at 500 ppm was greater than 90%.

For the molecule `CS(=O)(=NC(=O)c1ccc(-c2noc(C(F)(F)F)n2)cc1)c1ccncc1` (stereo not drawn) [Compound 4, N-(methyl(oxo)(pyridin-4-yl)-λ^6-sulfanylidene)-4-(5-(trifluoromethyl)-1,2,4-oxadiazol-3-yl)benzamide], the pest or weed control at 500 ppm was greater than 90%.
